Measurements: patent publication US10308631B2, “Selective anti-cancer compounds” (NATIONAL UNIVERSITY OF SINGAPORE, priority 2015, dated 2019)

Experiments:
Assay type in all cases: cell-based, human
[1] = test system: phospho-histone H3 (pH3) in HeLa cells; experiment: Immunoblot analysis of phospho-histone H3 in HeLa cells; conditions: 6 h
Description: FIG. 1 is a diagrammatic representation of an immunoblot analysis showing the dual inhibition of the autophagic process and mitotic progression by Compound 1 (a131). HeLa cells were treated with the indicated μM concentration of Compound 1 (a131) or chloroquine for 6 h. Cells were harvested and total lysates were analysed by detecting the mitotic marker phospho-histone H3 at serine 10 (pH3 (Ser10)) and the autophagosome marker LC3. The band intensity ratios of LC3-II/LC3-I as compared to DMSO control (lane 1, 0 μM chloroquine, and lane 7, 0 μM a131) are indicated (Ratio). Antibodies raised against β-actin were used as an internal loading control.
The ability of Compound 1 to inhibit lysosome function was examined using immunoblotting. HeLa cervical cancer cells were cultured in Dulbecco's modified Eagle's medium (DMEM) supplemented with 10% Fetal Bovine Serum (FBS, Thermo Scientific). […]
Defects in lysosome function and inhibition of autophagy can be measured by accumulation of LC3-phosphatidylethanolamine conjugated non-soluble form (LC3-II), which are converted from soluble LC3-I. Thus, antibodies raised against LC3 (Cell Signaling, Cat#4108) were used to determine lysosomal function and integrity. […] The inhibitory ability of Compound 1 was also quantitatively compared to CQ.

HeLa cells = experiment: Soft agar colony formation assay (anchorage-independent growth); conditions: sub-micromolar concentrations, seven days
Description: FIG. 8 is a histogram showing that Compound 1 (a131) potently suppresses anchorage-independent growth of cancer cells. HeLa cells were suspended in 2 mL of soft agar at the final concentration of 0.4%, and were then placed on the top of 2 mL layer of 1% agar in 6-well plates, in triplicate. Subsequently, Compound 1 (a131) was added to the plates at concentrations of 0, 0.15, 0.3, 0.6, 1.25. 2.5 and 5 μM. Seven (7) days after the addition of Compound 1 (a131) to soft agar cultures, the number of colonies per plate were counted in an unbiased manner using automated MATLAB software. The average number of colonies from triplicates was plotted with standard deviations.
Soft agar colony formation assays are known to better mimic the features of in vivo tumours growing in three dimensions than cancer cell lines growing in an in vitro tissue culture. Therefore, the anti-proliferative effects of Compound 1 on cancer cells growing anchorage-independently in soft agar were studied too.
HeLa cells as cultured in Biology Example 1 (1×10^4 cells/well) were suspended in 2 mL of soft agar at a final concentration of 0.4%. […] Seven days after the addition of Compound 1, the number of colonies per plate was counted in an unbiased manner using MATLAB software.

[2] = test system: non-transformed BJ cells depleted of p53 by shRNA-mediated knockdown; experiment: BrdU incorporation and FACS analysis (cell cycle arrest), p53 knockdown; conditions: 2.5 and 5 μM, 24 h
Description: A: is output from a FACS analysis of isogenic-non-transformed, without (panels a-c) (WT) or with (panels d-f) shRNA-mediated knockdown of p53 (p53KD), and oncogene-transformed BJ cells (panels g-i), each treated with 0, 5 or 2.5 μM Compound 1 (a131) for 24 h. Cells were doubly stained with PI (horizontal axis) and BrdU (vertical axis). The BrdU-positive population in panels a-c are indicated as arrows. B: is a diagrammatic representation of an immunoblot analysis showing isogenic non-transformed (normal) and oncogene-transformed BJ cells (transformed) treated with Compound 1 (a131) at 0, 2.5 or 5 μM for 24 h or 48 h. Cells were harvested and total lysates were analysed by detecting p53 and p21. Antibodies raised against β-actin were used as an internal loading control. C and D are histograms showing the percentage of bromodeoxyuracil (BrdU)-positive non-transformed (normal) BJ cells. C: Cells were treated with Group 1 Compound 1 (a131) at 2.5 and 5 μM, Compound 23 (b36) at 2.5 and 5 μM, and Compound 21 (b35) at 5 μM, and Group 2 Compound 25 (a166) at 2.5 and 5 μM, for 24 h. Cells were doubly stained with propidium iodide (PI) and BrdU, and subjected to FACS analysis. The BrdU-positive population are plotted as bars. […]

N#C/C(=C\c1cccc2cnccc12)c1c[nH]c2ccccc12 [Compound 1, (Z)-2-(1H-indol-3-yl)-3-(isoquinolin-5-yl)acrylonitrile]
inhibition of mitotic progression (levels of phospho-histone H3) [1]: potently inhibits mitotic progression | reduction of HeLa cell colonies grown in soft agar (HeLa cells): greater than 50% | cell cycle arrest in p53-depleted cells [2]: ability of Compound 1 to induce cell cycle arrest was compromised
